“Also recorded” adds a separate entry of the source.
Assays:
Type in all cases: cell-based, human
[1] = tested on: Rhodopsin expression in retinal organoids derived from hESCs; assay: Immunohistochemistry quantification of Rhodopsin+ cells (rods) at day 150; settings: addition day 90-120, organoids at day 150, compared to vehicle control
Description: Human Pluripotent Stem Cells differentiation to retinal organoids Retinal organoids were differentiated from the CRX-GFP H9 human ESC cell line using a feeder-free system. ESCs were expanded in […] Technologies, 05850) at 37° C. and 5% CO2 on 6 well plates pre-coated with Low Growth Factor Matrigel (Corning, 354230). The retinal organoids were generated following a protocol described in Collin et al., 2019 [25] with addition of various supplements, which are shown in FIG. 1. […] DAPT was only added from day 30-42 (for day 30-60 combined addition with RA from day 30-60), day 60-72 (for the combined addition with RA from day 60-90), day 90-102 (for the combined addition with RA from day 90-120) and day 30-42 (for the combined addition with RA from day 30-120). Retinal organoids were collected on day 150 and fixed in 2% PFA for 30 minutes, followed by three washes in Phosphate-buffered saline (PBS), incubated overnight in 30% sucrose in PBS, embedded in Optical Cutting medium (OCT) ([…], UK) and frozen at -20° C. Ten-micrometre cryostat sections were collected using a Leica Cm1860 cryostat (Leica, Germany) onto Superfrost Plus slides and stored at -20° C. in slide boxes prior to immunostaining. Cryosections were air-dried, washed several times in PBS and incubated in blocking solution (10% normal goat serum, 0.3% Triton-X-100 in PBS) for one hour at room temperature. Slides were incubated with the appropriate primary antibody overnight at 4° C. (Table 2). After rinsing with PBS, sections were incubated with the secondary antibody for 2 hours at room temperature. Alexa Fluor 647 and 546 secondary antibodies (InvitrogenMolecular Probes) were used at a 1:1000 dilution. Negative controls were carried out by omitting the primary antibody. Afterwards, sections were washed three times in PBS and mounted with Vectashield (Vector Laboratories, Burlingame, Calif.) containing Hoechst (LifeTechnologies, UK). Images were captured using an Axio Imager upright microscope with Apotome (Zeiss, Germany) structured illumination fluorescence using 20× objective and 63× oil objective operated with AxioVision software. Final images are presented as a maximum projection and adjusted for brightness and contrast in Adobe Photoshop (Adobe Systems). Cell image quantitation was performed using the MATLAB software (Mathworks, MA) following the protocol described in Dorgau et al., 2019 [26]. A minimum of eight individual retinal organoids were analysed for each condition. All results were further analysed using Microsoft Excel and Prism (GraphPad, USA).

[2] = tested on: OPN1MW/LW (L/M cones) expression in retinal organoids derived from hESCs; assay: Immunohistochemistry quantification of OPN1MW/LW+ cells (L/M cones) at day 150; settings: addition day 30-120; organoids at day 150; compared to vehicle control
Description: Human Pluripotent Stem Cells differentiation to retinal organoids Retinal organoids were differentiated from the CRX-GFP H9 human ESC cell line using a feeder-free system. ESCs were expanded in mTeSR™1 (StemCell Technologies, 05850) at 37° C. and 5% CO2 on 6 well plates pre-coated with Low Growth Factor Matrigel (Corning, 354230). The retinal organoids were generated following a protocol described in Collin et al., 2019 [25] with addition of various supplements, which are shown in FIG. 1. […]
(§1) Images were captured using an Axio Imager upright microscope with Apotome (Zeiss, Germany) structured illumination fluorescence using 20× objective and 63× oil objective operated with AxioVision software. […]
Cell image quantitation was performed using the MATLAB software (Mathworks, MA) following the protocol described in Dorgau et al., 2019 [26]. A minimum of eight individual retinal organoids were analysed for each condition. All results were further analysed using Microsoft Excel and Prism (GraphPad, USA).

retinal organoids = assay: Retinal organoid lamination and tissue architecture at day 150; settings: day 150 of differentiation
Description: Human Pluripotent Stem Cells differentiation to retinal organoids Retinal organoids were differentiated from the CRX-GFP H9 human ESC cell line using a feeder-free system. ESCs were expanded in mTeSR™1 (StemCell Technologies, 05850) at 37° C. and 5% CO2 on 6 well plates pre-coated with Low Growth Factor Matrigel (Corning, 354230). The retinal organoids were generated following a protocol described in Collin et al., 2019 [25] with addition of various supplements, which are shown in FIG. 1.
The tested supplements include Retinoic Acid (RA) (0.5 μM or 1 μM Sigma-Aldrich UK), 9-cis-retinal (0.5 μM, Sigma-Aldrich UK), 11-cis-retinal (0.5 μM, BOC Sciences), Levodopa (0.5 μM, Sigma-Aldrich UK), Triiodothyronine (T3) (20 ng/ml or 40 ng/ml, Sigma-Aldrich) and DAPT (10 μM Sigma-Aldrich UK) singly or in combination with each other from day 18 of differentiation for specific durations (day 18 onwards, day 30-60, day 60-90, day 90-120 and day 30-120), except for DAPT (FIG. 1). […]
as §1

Structure (SMILES): CC1=C(/C=C/C(C)=C\C=C\C(C)=C\C=O)C(C)(C)CCC1 [9-cis-retinal]
- Rhodopsin+ cells (rods), immunohistochemistry quantification [1]: lower

Structure (SMILES): CC1=C(/C=C/C(C)=C/C=C/C(C)=C/C(=O)O)C(C)(C)CCC1 [RA, all-trans-retinoic acid]
- Rhodopsin+ cells (rods), immunohistochemistry quantification [1]: reduction
- Rhodopsin+ cells (rods), immunohistochemistry quantification ([1]; listed as RA alone): lower
- OPN1MW/LW+ cells (L/M cones), IHC quantification [2]: significantly enhanced

Structure (SMILES): CC1=C(/C=C/C(C)=C/C=C/C(C)=C/C=O)C(C)(C)CCC1 [11-cis-retinal]
- Rhodopsin+ cells (rods), immunohistochemistry quantification [1]: lower; also recorded: reduction

Structure (SMILES): C[C@H](NC(=O)Cc1cc(F)cc(F)c1)C(=O)N[C@H](C(=O)OC(C)(C)C)c1ccccc1 [DAPT]
- Effect on tissue architecture and lamination of the retinal organoids (retinal organoids): did not interfere

Source: patent publication US20220315888A1, “CULTURE METHOD FOR RETINAL ORGANOIDS” (University of Newcastle Upon Tyne, priority 2019, published 2022)
